Results taken from PubChem BioAssay (NCI).
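How tested: cells in 96-well plates exposed to compound for 48 hours at five concentrations. TGI: total growth inhibition.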

Columns and labels:
Test in all cases: NCI-60 cell line screen, 48 h
OVCAR-8 ovarian = test system: OVCAR-8 ovarian
XF 498 CNS = test system: XF 498 CNS
RXF 393 renal = test system: RXF 393 renal
SF-539 CNS = test system: SF-539 CNS
NCI-H460 lung = test system: NCI-H460 lung
UO-31 renal = test system: UO-31 renal
OVCAR-3 ovarian = test system: OVCAR-3 ovarian
MOLT-4 leukemia = test system: MOLT-4 leukemia
EKVX NSCLC = test system: EKVX NSCLC
HOP-92 NSCLC = test system: HOP-92 NSCLC
SK-MEL-2 melanoma = test system: SK-MEL-2 melanoma
RPMI-8226 leukemia = test system: RPMI-8226 leukemia
UACC-257 melanoma = test system: UACC-257 melanoma
OVCAR-5 ovarian = test system: OVCAR-5 ovarian
HOP-62 NSCLC = test system: HOP-62 NSCLC
NCI-H522 lung = test system: NCI-H522 lung
K-562 leukemia = test system: K-562 leukemia
M14 melanoma = test system: M14 melanoma
KM20L2 colon = test system: KM20L2 colon
SN12C renal = test system: SN12C renal
IGROV1 ovarian = test system: IGROV1 ovarian
LOX IMVI melanoma = test system: LOX IMVI melanoma
NCI-H226 lung = test system: NCI-H226 lung
SW-620 colon = test system: SW-620 colon
SK-OV-3 ovarian = test system: SK-OV-3 ovarian
A498 renal = test system: A498 renal
OVCAR-4 ovarian = test system: OVCAR-4 ovarian
SF-295 CNS = test system: SF-295 CNS
U251 CNS = test system: U251 CNS
SNB-78 CNS = test system: SNB-78 CNS
HCT-15 colon = test system: HCT-15 colon
SF-268 CNS = test system: SF-268 CNS
HL-60(TB) leukemia = test system: HL-60(TB) leukemia
SK-MEL-5 melanoma = test system: SK-MEL-5 melanoma
LXFL 529 NSCLC = test system: LXFL 529 NSCLC
COLO 205 colon = test system: COLO 205 colon
KM12 colon = test system: KM12 colon
SNB-19 CNS = test system: SNB-19 CNS
SK-MEL-28 melanoma = test system: SK-MEL-28 melanoma
HT29 colon = test system: HT29 colon
DMS 273 small cell lung = test system: DMS 273 small cell lung
SR leukemia = test system: SR leukemia
TK-10 renal = test system: TK-10 renal
SNB-75 CNS = test system: SNB-75 CNS
CCRF-CEM leukemia = test system: CCRF-CEM leukemia
HCT-116 colon = test system: HCT-116 colon
A549 NSCLC = test system: A549 NSCLC
786-0 renal = test system: 786-0 renal
UACC-62 melanoma = test system: UACC-62 melanoma
ACHN renal = test system: ACHN renal
CAKI-1 renal = test system: CAKI-1 renal
NCI-H23 lung = test system: NCI-H23 lung

For CN(C)C(=O)Nc1c([N+](=O)[O-])cc(C(F)(F)F)cc1[N+](=O)[O-], the TGI (OVCAR-8 ovarian) was > 100 µM, the TGI (XF 498 CNS) was 80.8 µM and the TGI (RXF 393 renal) was > 100 µM. For the same molecule, the TGI (SF-539 CNS) was > 100 µM, the TGI (NCI-H460 lung) was > 100 µM and the TGI (UO-31 renal) was > 100 µM. The TGI (OVCAR-3 ovarian) was 53.7 µM, the TGI (MOLT-4 leukemia) was > 100 µM and the TGI (EKVX NSCLC) was > 100 µM. For the same molecule, the TGI (HOP-92 NSCLC) was > 100 µM, the TGI (SK-MEL-2 melanoma) was > 100 µM and the TGI (RPMI-8226 leukemia) was > 100 µM. The TGI (UACC-257 melanoma) was 84.3 µM, the TGI (OVCAR-5 ovarian) was > 100 µM and the TGI (HOP-62 NSCLC) was > 100 µM. For the same molecule, the TGI (NCI-H522 lung) was 77.5 µM, the TGI (K-562 leukemia) was > 100 µM and the TGI (M14 melanoma) was > 100 µM. The TGI (KM20L2 colon) was 59.3 µM, the TGI (SN12C renal) was > 100 µM and the TGI (IGROV1 ovarian) was > 100 µM. The TGI (LOX IMVI melanoma) was > 100 µM, the TGI (NCI-H226 lung) was > 100 µM and the TGI (SW-620 colon) was > 100 µM. For the same molecule, the TGI (SK-OV-3 ovarian) was > 100 µM, the TGI (A498 renal) was > 100 µM and the TGI (OVCAR-4 ovarian) was > 100 µM. For the same molecule, the TGI (SF-295 CNS) was > 100 µM, the TGI (U251 CNS) was > 100 µM and the TGI (SNB-78 CNS) was > 100 µM. For the same molecule, the TGI (HCT-15 colon) was > 100 µM, the TGI (SF-268 CNS) was > 100 µM and the TGI (HL-60(TB) leukemia) was 48 µM. For the same molecule, the TGI (SK-MEL-5 melanoma) was > 100 µM, the TGI (LXFL 529 NSCLC) was > 100 µM and the TGI (COLO 205 colon) was 69.3 µM. For the same molecule, the TGI (KM12 colon) was > 100 µM, the TGI (SNB-19 CNS) was > 100 µM and the TGI (SK-MEL-28 melanoma) was > 100 µM. For the same molecule, the TGI (HT29 colon) was > 100 µM, the TGI (DMS 273 small cell lung) was > 100 µM and the TGI (SR leukemia) was > 100 µM. For the same molecule, the TGI (TK-10 renal) was > 100 µM, the TGI (SNB-75 CNS) was > 100 µM and the TGI (CCRF-CEM leukemia) was > 100 µM. For the same molecule, the TGI (HCT-116 colon) was > 100 µM, the TGI (A549 NSCLC) was > 100 µM and the TGI (786-0 renal) was > 100 µM. For the same molecule, the TGI (UACC-62 melanoma) was > 100 µM, the TGI (ACHN renal) was > 100 µM and the TGI (CAKI-1 renal) was > 100 µM. The TGI (NCI-H23 lung) was > 100 µM.
